One data set concerns Canis familiaris. Kind of data set: Toxicity in high-fat diet fed dog assessed as effect on food intake at 0.003 mg/kg, po administered QD for 1 week (reference value: 3.67+/-0.09 kg). Also on record: dose 0.003 mg/kg, route oral. It is filed as organism-based, Canis lupus familiaris. Particulars: in vivo, 168 h.
Data set [1] addresses T1, Peroxisome proliferator-activated receptor alpha (Canis lupus familiaris, UniProt Q95N78).
T1 sequence (Q95N78 whole entry): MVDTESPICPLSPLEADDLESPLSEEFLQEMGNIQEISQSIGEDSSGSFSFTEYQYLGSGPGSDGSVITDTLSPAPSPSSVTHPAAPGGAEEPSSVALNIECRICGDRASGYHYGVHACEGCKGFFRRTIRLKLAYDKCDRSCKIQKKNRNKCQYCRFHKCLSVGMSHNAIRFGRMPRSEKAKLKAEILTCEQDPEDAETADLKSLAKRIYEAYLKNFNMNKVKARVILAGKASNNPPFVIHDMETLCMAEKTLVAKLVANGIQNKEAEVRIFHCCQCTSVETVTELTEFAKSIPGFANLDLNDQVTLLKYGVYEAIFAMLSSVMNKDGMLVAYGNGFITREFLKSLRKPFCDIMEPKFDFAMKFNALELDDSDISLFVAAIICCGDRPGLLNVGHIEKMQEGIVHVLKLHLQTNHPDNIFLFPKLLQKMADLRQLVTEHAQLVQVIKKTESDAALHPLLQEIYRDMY
Kind of data set: Agonist activity at dog PPARalpha. It is filed as functional.

Data set [2] addresses T2, Peroxisome proliferator-activated receptor alpha (Homo sapiens, UniProt Q07869).
T2 sequence (Q07869 whole entry): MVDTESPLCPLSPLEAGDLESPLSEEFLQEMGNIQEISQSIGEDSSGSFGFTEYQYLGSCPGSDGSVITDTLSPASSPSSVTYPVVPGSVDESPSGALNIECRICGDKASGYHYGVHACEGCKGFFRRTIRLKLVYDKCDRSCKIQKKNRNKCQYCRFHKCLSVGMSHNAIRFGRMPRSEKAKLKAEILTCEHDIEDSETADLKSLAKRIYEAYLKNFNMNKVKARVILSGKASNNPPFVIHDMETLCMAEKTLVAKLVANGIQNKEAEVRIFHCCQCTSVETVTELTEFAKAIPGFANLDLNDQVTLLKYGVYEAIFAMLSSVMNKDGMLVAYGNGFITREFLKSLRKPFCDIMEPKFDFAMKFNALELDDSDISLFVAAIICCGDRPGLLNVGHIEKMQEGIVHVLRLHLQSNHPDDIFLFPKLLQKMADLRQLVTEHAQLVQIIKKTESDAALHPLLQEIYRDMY
Put plainly: Transactivation of human PPARalpha expressed in CHO-K1 cells. It is filed as cell-based.

A short description of data set [3]: Total clearance in dog at 0.3 mg/kg, po. It counts as ADME, organism-based, Canis lupus familiaris. Also on record: dose 0.3 mg/kg, route oral. Particulars: in vivo.
Data set [4] deals with T3, Peroxisome proliferator-activated receptor gamma (Rattus norvegicus, UniProt O88275).
T3 sequence (O88275 whole entry): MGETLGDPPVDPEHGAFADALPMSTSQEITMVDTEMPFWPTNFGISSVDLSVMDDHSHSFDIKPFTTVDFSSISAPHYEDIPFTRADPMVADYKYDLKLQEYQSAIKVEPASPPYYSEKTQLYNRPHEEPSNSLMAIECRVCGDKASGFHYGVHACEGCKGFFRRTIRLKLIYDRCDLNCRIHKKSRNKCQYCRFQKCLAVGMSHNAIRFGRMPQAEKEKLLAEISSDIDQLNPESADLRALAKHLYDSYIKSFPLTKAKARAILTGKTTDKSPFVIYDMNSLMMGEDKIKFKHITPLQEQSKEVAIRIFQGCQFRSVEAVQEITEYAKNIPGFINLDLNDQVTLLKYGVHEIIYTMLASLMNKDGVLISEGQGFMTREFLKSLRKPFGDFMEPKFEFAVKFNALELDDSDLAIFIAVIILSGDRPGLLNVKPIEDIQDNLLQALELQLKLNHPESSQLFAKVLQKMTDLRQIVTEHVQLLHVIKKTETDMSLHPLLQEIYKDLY
Kind of data set: Agonist activity at rat PPARgamma. It is filed as functional.

Data set [5] concerns the target T4, Peroxisome proliferator-activated receptor delta (Homo sapiens, UniProt Q03181).
T4 sequence (Q03181 whole entry): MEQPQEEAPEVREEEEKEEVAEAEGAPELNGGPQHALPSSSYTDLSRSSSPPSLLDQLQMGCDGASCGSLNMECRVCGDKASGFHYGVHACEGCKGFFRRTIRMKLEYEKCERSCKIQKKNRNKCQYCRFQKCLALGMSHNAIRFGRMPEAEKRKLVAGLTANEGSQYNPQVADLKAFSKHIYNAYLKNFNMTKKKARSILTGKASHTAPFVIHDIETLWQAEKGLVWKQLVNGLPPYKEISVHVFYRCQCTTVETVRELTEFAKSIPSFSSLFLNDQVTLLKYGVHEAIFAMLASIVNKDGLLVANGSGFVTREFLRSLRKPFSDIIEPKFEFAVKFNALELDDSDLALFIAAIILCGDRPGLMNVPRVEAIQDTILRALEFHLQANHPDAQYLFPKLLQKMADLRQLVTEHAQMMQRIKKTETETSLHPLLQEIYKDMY
Put plainly: Transactivation of human PPARdelta expressed in CHO-K1 cells. It is filed as cell-based.

The structures appear in SMILES notation.

For `Cc1nc(-c2ccc(Cl)cc2)sc1C(=O)N[C@H]1CCCN(c2cccc(C(=O)O)c2)C1`, in the data set on Canis familiaris, the Activity turned out to be 3.85 kg. The EC50 in data set [1] was 190 nM; in data set [2] it was 8 nM; in data set [4] it was 13000 nM; in data set [5] it was 3000 nM. This compound gave a CL/F in data set [3] of 0.333 mL/min/kg.

Broadly, the EC50 is the concentration giving half of the maximal effect. Higher therefore signals weaker potency. Broadly, the CL/F is the apparent clearance, not corrected for the fraction that reaches the circulation.

The record behind these values is ChEMBL document CHEMBL1933028, “Discovery of cyclic amine-substituted benzoic acids as PPARα agonists” (Bioorg Med Chem Lett, 2012).
